{
  "source": "patent US10426755B2",
  "about": "“Methods for inhibiting cancer cells” (Chang Gung Memorial Hospital, Chiayi, priority 2015, dated 2019)",
  "assay_type_in_all_cases": "cell-based",
  "key": {"[1]": {"test_system": "lung cancer cells (A549 and chemotherapy-resistant/metastatic H460)", "test": "Annexin V/PI flow cytometry apoptosis/necrosis, lung cancer cells", "conditions": "10 or 20 μM DT, 24-48 hours, vs PBS and DMSO vehicle (CT); time dependent; FIG. 7", "experimental": "(§1) The effect of DT on metastatic prostate cancer cells (hormone therapy-resistant PC3, DU145 and LNCaP); lung cancer cells (A549 and chemotherapy-resistant/metastatic H460); and breast cancer cells (MCF-7, tamoxifen-resistant MCF7 and MDA MB-231) was assessed.\n(§2) 1×10^6 Cancer cells were seeded in a 100-mm plate and cultured overnight. The cancer cells were treated with phosphate buffered saline (PBS), a Dimethyl sulfoxide (DMSO) vehicle (CT), 10 or 20 μM of DT for 24-48 hours, then collected and washed with cold PBS. The supernatant was removed by centrifugation and resuspended in FITC Annexin V binding buffer and Propidium iodide (PI) (Annexin V-FITC Apoptosis Detection Kit, commercially available from Strong Biotech Corporation, Taiwan). The suspended cancer cells were stained at room temperature, in the dark for 15 min and analyzed by the BD FACSCanto™ flow cytometry (Becton Dickinson, USA). The amount of early apoptosis, late apoptosis, and necrosis was measured as the percentage of annexin-V positive/PI negative (Q4 in the FACS images), annexin-V positive/PI positive (Q2 in the FACS images), and annexin-V negative/PI positive cells (Q1 in the FACS images), respectively. Normal cells are in […] of the FACS images."}, "[2]": {"test_system": "chemotherapy-resistant colorectal cancer cells (HCT116)", "test": "XTT proliferation assay, colorectal cancer cells", "conditions": "1, 5 and 10 μM DT, 1-3 days, FIG. 5", "experimental": "(§3) The prostate cancer cells were plated at a density of 10^3 or 3×10^3 per well, in a 96-well plate, in a medium containing 10% Fetal bovine serum (FBS) (Gibco®, commercially available from Life Technologies, USA). Once the prostate cancer cells were attached to the culture dish, the 10% FBS medium was replaced with a second 10% FBS medium and each of the prostate cancer cell line was treated with 1, 5, and 10 μM of DT respectively for 1-2 days. The absorbance was measured using XTT assay kit (commercially available from Roche, Switzerland) at 492 nm using an ELISA reader (Bio-Rad Laboratories, USA).\nAn in vitro evaluation of the effect of DT on the chemotherapy-resistant colorectal cancer cells was performed. The chemotherapy-resistant colorectal cancer cells (HCT116) were obtained from Dr. K D Lee at Chang Gung Memorial Hospital, Chiayi, Taiwan. The colorectal cancer cells were cultured and plated according to the steps in Example 1 and treated with 0 (control), 1, 5 and 10 μM of DT, respectively for 1-3 days. The absorbance was measured using XTT assay kit at 492 nm using an ELISA reader."}, "[3]": {"test_system": "skp2, MMP2, MMP9 in DU145, PC3 and 22RV1 prostate cancer cells", "test": "skp2 and downstream gene mRNA expression, prostate cancer cells", "conditions": "various concentrations of DT vs DMSO; PC3, DU145, 22RV1; FIG. 9 (h)-(l)", "experimental": "(§4) It has been reported that skp2 plays an important role in the metastasis of cancer cells. An in vitro evaluation of the effect of DT on prostate cancer cell metastasis was performed, by measuring the mRNA expression of skp2 in the following prostate cancer cell lines: meatstatic DU145 cells (Panels i-j of FIG. 9), hormone therapy resistant and metastatic PC3 cells (Panel h of FIG. 9), and 22RV1 cells (Panels k-l of FIG. 9), A549 lung cancer cells (Panels (c)-(e) of FIG. 10), chemotherapy-resistant/metastatic H460 lung cancer cells (Panels (d) and (f) of FIG. 10), HCT116 colon cancer cells (Panels (g) and (i) of FIG. 10) and MCF7-tamoxifen resistant breast cancer cells (Panels (h) and (j) of FIG. 10) […].\n(§5) The cancer cells were treated with DMSO and various concentrations of DT."}, "[4]": {"test_system": "skp2 and downstream genes in MCF7-tamoxifen resistant breast cancer cells", "test": "skp2 and downstream gene mRNA expression, tamoxifen resistant breast cancer cells", "conditions": "various concentrations of DT vs DMSO, FIG. 10 (h), (j)", "experimental": "as §4, §5"}, "[5]": {"test_system": "ARK1 endometrial cancer cells", "test": "XTT proliferation assay, ARK1", "conditions": "5, 10 and 20 μM DT, 1-2 days, FIG. 4", "experimental": "as §3\n(§6) An in vitro evaluation of the effect of DT on endometrial cancer cells was performed. The endometrial cancer cell lines, ARK1 and ARK2, were provided by Dr. T H Wang at Chang Gung Meorial Hospital, Linkou, Taiwan)\n(§7) The endometrial cancer cells were cultured and plated according to the steps in Example 1 and each of the endometrial cancer cell line was treated with 0 (control), 5, 10 and 20 μM of DT, respectively for 1-2 days. The absorbance was measured using XTT assay kit at 492 nm using an ELISA reader."}, "[6]": {"test_system": "breast cancer cells (MCF-7, tamoxifen-resistant MCF7 and MDA MB-231)", "test": "Annexin V/PI flow cytometry apoptosis/necrosis, breast cancer cells", "conditions": "10 or 20 μM DT, 24-48 hours, vs PBS and control; time dependent; FIG. 8", "experimental": "as §1, §2"}, "[7]": {"test_system": "ARK2 endometrial cancer cells", "test": "XTT proliferation assay, ARK2", "conditions": "5, 10 and 20 μM DT, 1-2 days, FIG. 4", "experimental": "as §3, §6, §7"}, "[8]": {"test_system": "breast cancer cell lines (MDA-MB-231, MCF-7 and tamoxifen-resistant MCF-7)", "test": "XTT proliferation assay, breast cancer cells", "conditions": "0, 5, 10 and 20 μM DT, 1-3 days, FIG. 3", "experimental": "as §3\n(§8) An in vitro evaluation of the effect of DT on the breast cancer cells was performed. The breast cancer cell lines, MDA-MB-231, MCF-7 and tamoxifen-resistant MCF-7 breast cancer cells were obtained from Bioresource Collection and Research Center, Taiwan. The breast cancer cells were cultured in Eagle's Minimum Essential Medium containing 10% charcoal-stripped fetal bovine serum and plated according to the steps in Example 1 and each of the breast cancer cell line was treated with 0 (control), 5, 10 and 20 μM of DT, respectively for 1-3 days. The absorbance was measured using XTT assay kit at 492 nm using an ELISA reader."}, "[9]": {"test_system": "tamoxifen-resistant MCF-7 breast cancer cells", "test": "XTT proliferation assay, tamoxifen-resistant MCF-7", "conditions": "1-3 days, Panel (c) of FIG. 3", "experimental": "as §3, §8"}, "CCL2 in THP1 monocytes": {"test_system": "CCL2 in THP1 monocytes", "test": "CCL2 ELISA of culture medium, THP1 monocytes", "conditions": "5 or 10 μM DT, 24 hours, vs DMSO, FIG. 14 (b)", "experimental": "It has been reported that increased CCL2 expression enhances cancer cell metastasis via macrophage recruitment. The effect of DT on CCL2 expression in RAW264.7 macrophages, THP1 monocytes and prostate cancer cells (metastatic DU145 and hormone therapy resistant and metastatic PC3) was examined by treating the cells with DMSO (control), 5 or 10 μM DT for 24 hours.\nThe culture medium was collected and the concentration of CCL2 was measured using ELISA assay."}},
  "note": "Entries after “also recorded” stand apart in the source; their conditions may differ.",
  "data": [
    {"smiles": "Cc1cccc2c3c(ccc12)C(=O)C1=C(OCC1C)C3=O", "note": "(stereo not shown) [DT, dihydroisotanshinone I]", "values": [
      {"measurement": "early apoptosis, late apoptosis and necrosis, lung cancer cells", "setting": "[1]", "value": "more early apoptosis, late apoptosis and necrosis; also recorded: induced lung cancer cell apoptosis/necrosis"},
      {"measurement": "inhibition of chemotherapy-resistant colorectal cancer cells", "setting": "[2]", "value": "effective in inhibiting chemotherapy-resistant colorectal cancer cells in a dose dependent manner"},
      {"measurement": "mRNA expression of skp2 and its downstream genes, prostate cancer", "setting": "[3]", "value": "effectively inhibit mRNA expression of skp2 and its downstream genes; also recorded: reduced skps and its downstream genes, MMP2 and MMP9"},
      {"measurement": "mRNA expression of skp2 and its downstream genes, target therapy resistant breast cancer", "setting": "[4]", "value": "effectively inhibit mRNA expression of skp2 and its downstream genes; also recorded: reduces skps and its downstream genes, MMP2, MMP9 and E-cadherin"},
      {"measurement": "inhibition of ARK1 endometrial cancer cells", "setting": "[5]", "value": "effective in inhibiting ARK1 and ARK2 endometrial cancer cells"},
      {"measurement": "early apoptosis, late apoptosis and necrosis, breast cancer cells", "setting": "[6]", "value": "more early apoptosis, late apoptosis and necrosis"},
      {"measurement": "inhibition of ARK2 endometrial cancer cells", "setting": "[7]", "value": "effective in inhibiting ARK1 and ARK2 endometrial cancer cells"},
      {"measurement": "inhibition of breast cancer cells (proliferation)", "setting": "[8]", "value": "effective in inhibiting breast cancer cells, even for the tamoxifen-resistant MCF-7 breast cancer cells, in a dose dependent and time dependent fashion"},
      {"measurement": "dose of DT required for inhibiting tamoxifen-resistant MCF-7 cells", "setting": "[9]", "value": "> 1", "unit": "µM"},
      {"measurement": "production of CCL2 in THP1 monocytes", "setting": "CCL2 in THP1 monocytes", "value": "effectively inhibit the production of CCL2"}
    ]}
  ]
}
